Results taken from US10973863B2, “Method for regulating, preventing and/or treating pulmonary injury” (SINPHAR PHARMACEUTICAL CO., LTD., priority 2017, dated 2021).

Tests used:
[1] = test system: MMP-12; assay: Western blot: MMP-12 expression in LPS-treated NR8383 cells; assay type: cell-based, rat; settings: 0.01 μg/mL LPS; 6.25 to 50 μg/mL; 24 hours
Experimental: Rat alveolar macrophage NR8383 cells were divided into six groups and separately cultivated with the following media for 24 hours: • (1) Control group: a macrophage growth medium containing 0.01 μg/mL LPS; • (2) Positive control group: a macrophage growth medium containing 0.01 μg/mL LPS and 1 μM Dex; and • (3) Extract A group (including four sub-groups): a macrophage growth medium containing 0.01 μg/mL LPS and the extract A provided by [preparation example A-2-2], wherein the extract A is present in the four sub-groups at a concentration of 6.25, 12.5, 25 and 50 μg/mL respectively.
Thereafter, the proteins in the cells of each group were extracted and then subjected to a Western blot to measure the expression level of pro-form MMP-9 (i.e., the zymogen form of MMP-9), active-form MMP-9 and MMP-12. The relative expression level of pro-form MMP-9, active-form MMP-9 and MMP-12 of each group was calculated by using the results of the control group as a basis (i.e., the expression level of control group was served as 1-fold).
Rat alveolar macrophage NR8383 cells were divided into ten groups and separately cultivated with the following media for 24 hours:
(1) Control group: a macrophage growth medium containing 0.01 μg/mL LPS;
(2) Positive control group: a macrophage growth medium containing 0.01 μg/mL LPS and 1 μM Dex; […]

[2] = test system: TGFβ-induced intracellular accumulation of collagen in myofibroblast WI38 cells; assay: Picrosirius red staining: TGFβ-induced collagen accumulation in WI38 cells; assay type: cell-based; settings: Table 7, 1 ng/mL TGF-β, 24 hours
Excerpt: As indicated above, the hyperactive expression of MMPs will cause pulmonary injury. Under the most circumstances, the response mechanisms in animals will activate, for example, macrophages will secret TGF-β and TGF-β which can promote the lung fibroblasts to secret collagen, so that the damaged tissues can be recovered. However, the hypersecretion of collagen will also lead to lung fibrosis. To investigate whether FU-LING extracts and its active ingredients are effective in regulating, protecting and/or treating the pulmonary injury-related diseases such as lung fibrosis or not, the Picrosirius red (PSR) staining was conducted as a semi-quantification of collagen, so that the inhibitory rate of FU-LING extract and its active ingredients on the TGFβ-induced intracellular accumulation of collagen in myofibroblast WI38 cells can be determined.
Myofibroblast WI38 cells (purchased from ATCC, product no. CCL75™) were divided into ten groups and separately cultivated with the following media for 48 hours:
(1) Blank group: a myolibroblast growth medium;
(2) Control group: a myofibroblast growth medium containing 1 ng/mL TGF-β (purchased from R&D system);
(3) Positive control group: a myofibroblast growth medium containing 1 ng/mL TGF-β and 200 μg/mL Pirfenidone (abbreviated as “Pir”; purchased from Sigma-Aldrich);
(4) Extract A (including four sub-groups): a myofibroblast growth medium containing 1 ng/mL TGF-β and the extract A provided by [Preparation example A-2-2], wherein the extract A is present in the four sub-groups at a concentration of 12.5, 25, 50 and 100 μg/mL respectively; and
(5) Extract B (including three sub-groups): a myofibroblast growth medium containing 1 ng/ml, TGF-β and the extract B provided by [Preparation example A-2-3], wherein the extract B is present in the […] at a concentration of 12.5, 25 and 50 μg/mL respectively.
Thereafter, the media were replaced by methanol to fix the cells at a temperature of −20° C. for 1 to 2 hours. After that, the cells were washed with PBS, and then stained with 0.1% PSR staining agent (purchased from Sigma-Aldrich) at room temperature for 4 hours. The stained cells were washed with 0.1% acetic acid, and then lysed with 0.1N sodium hydroxide to provide a lysate. The OD540 (i.e., the absorbance at a wavelength of 540 nm) of the lysate was measured. OD540 value of each group represents the content of collagen in each group, reflecting the content of collagen in fibroblast WI38 cells under different circumstances (the relative content of collagen in each group was calculated by serving the result of blank group as 0% and serving the result of control group as 100%).
Myofibroblast WI38 cells were divided into twenty-eight groups and separately cultivated with the following media for 24 hours:
(1) Blank group: a myofibroblast growth medium;
(3) Positive control group; a myofibroblast growth medium containing 1 ng/mL TGF-β and 200 μg/mL Pirfenidone (abbreviated as “Pir”; purchased from Sigma-Aldrich);
(4) Extract C group (including five sub-groups): a myofibroblast growth medium containing 1 ng/mL TGF-β and the extract C provided by [preparation example A-3-2], wherein the extract C is present in the five sub-groups at a concentration of […], 6.25 and 12.5 μg/mL respectively;
(5) Extract D group (including five sub-groups): a myofibroblast growth medium containing 1 ng/mL TGF-β and the extract D provided by [preparation example A-4-2], wherein the extract D is present in the five sub-groups at a concentration of 0.78, 1.56, 3.13, 6.25 and 12.5 μg/mL respectively;
(6) Extract E group (including five sub-groups): a myofibroblast growth medium containing 1 ng/mL TGF-β and the extract E provided by [preparation example A-4-3], wherein the extract E is present in the five sub-groups at a concentration of 0.78, 1.56, 3.13, 6.25 and 12.5 μg/mL respectively; […]

SMILES: C=C(CC[C@@H](C(=O)O)[C@H]1[C@H](O)C[C@@]2(C)C3=CC[C@@H](C(=C)C)[C@](C)(CCC(=O)O)C3=CC[C@]12C)C(C)C [PAA, poricoic acid A]
- Expression level of MMP-12 (in words) [1]: effective in inhibiting
- Relative content of collagen (%) ([2]; 6.25 μg/mL): 82%
- Relative content of collagen (%) ([2]; 12.5 μg/mL): 78%
- Relative content of collagen (%) ([2]; 25 μg/mL): 48%
- Relative content of collagen (%) ([2]; 50 μg/mL): 0%
- Relative content of collagen (%) ([2]; 100 μg/mL): 0%
